In ChEMBL document CHEMBL4834415, “Distinct Lugdunins from a New Efficient Synthesis and Broad Exploitation of Its MRSA-Antimicrobial Structure” (2021):
≈ marks a conversion by molar mass, not a printed value.

System: Staphylococcus aureus
Assay: Antibacterial activity against methicillin-resistant Staphylococcus aureus USA300 LAC assessed as reduction in bacterial growth incubated for 21 hrs by broth dilution method
Assay type: functional

Structure (SMILES)	MIC
CC(C)C[C@H]1NC(=O)[C@@H]2CSC(N2)[C@H](C(C)C)NC(=O)[C@@H](C(C)C)NC(=O)[C@H](C(C)C)NC(=O)[C@@H](CC(C)C)NC(=O)[C@H](Cc2c[nH]c3ccccc23)NC1=O	15.7 µM (≈ 12.5 µg/mL)
CC(C)C[C@H]1NC(=O)[C@H](Cc2ccco2)NC(=O)[C@@H](C(C)C)NC(=O)[C@@H]2CSC(N2)[C@H](C(C)C)NC(=O)[C@@H](C(C)C)NC(=O)[C@H](C(C)C)NC1=O	136 µM (≈ 100 µg/mL)
CC(C)C[C@H]1NC(=O)[C@@H]2CSC(N2)[C@H](C(C)C)NC(=O)[C@@H](C(C)C)NC(=O)[C@H](C(C)C)NC(=O)[C@@H](C(C)C)NC(=O)[C@H](Cc2c[nH]c3ccccc23)NC1=O	128 µM (≈ 100 µg/mL)
CC(C)[C@@H]1NC(=O)[C@@H](Cc2c[nH]c3ccccc23)NC(=O)[C@H](C(C)C)NC(=O)[C@H]2CCCN2C(=O)[C@H](Cc2c[nH]c3ccccc23)NC(=O)[C@@H](C(C)C)NC(=O)[C@@H]2CSC1N2	117 µM (≈ 100 µg/mL)
C#CC[C@H]1NC(=O)[C@@H]2CSC(N2)[C@H](C(C)C)NC(=O)[C@@H](Cc2c[nH]c3ccccc23)NC(=O)[C@H](C(C)C)NC(=O)[C@@H](CC(C)C)NC(=O)[C@H](Cc2c[nH]c3ccccc23)NC1=O	3.9 µM (≈ 3.38 µg/mL)
CC(C)C[C@H]1NC(=O)[C@H](Cc2c[nH]cn2)NC(=O)[C@@H](C(C)C)NC(=O)[C@@H]2CSC(N2)[C@H](C(C)C)NC(=O)[C@@H](C(C)C)NC(=O)[C@H](C(C)C)NC1=O	136 µM (≈ 100 µg/mL)
CC[C@H](C)[C@H]1NC(=O)[C@H](Cc2c[nH]c3ccccc23)NC(=O)[C@@H](C(C)C)NC(=O)[C@@H]2CSC(N2)[C@H](C(C)C)NC(=O)[C@@H](C(C)C)NC(=O)[C@H](C(C)C)NC1=O	31.9 µM (≈ 25 µg/mL)
CSCC[C@H]1NC(=O)[C@H](Cc2c[nH]c3ccccc23)NC(=O)[C@@H](C(C)C)NC(=O)[C@@H]2CSC(N2)[C@H](C(C)C)NC(=O)[C@@H](Cc2c[nH]c3ccccc23)NC(=O)[C@H](C(C)C)NC1=O	113 µM (≈ 100 µg/mL)
CC(C)C[C@H]1NC(=O)[C@H](Cc2ccc(Cl)cc2)NC(=O)[C@@H](C(C)C)NC(=O)[C@@H]2CSC(N2)[C@H](C(C)C)NC(=O)[C@@H](C(C)C)NC(=O)[C@H](C(C)C)NC1=O	129 µM (≈ 100 µg/mL)
CC(C)[C@@H]1NC(=O)[C@@H](Cc2c[nH]c3ccccc23)NC(=O)[C@H](C(C)C)NC(=O)[C@@H](C(C)(C)C)NC(=O)[C@H](Cc2c[nH]c3ccccc23)NC(=O)[C@@H](C(C)C)NC(=O)[C@@H]2CSC1N2	28.8 µM (≈ 25.1 µg/mL)
CC[C@H](C)[C@H]1NC(=O)[C@@H]2CSC(N2)[C@H](C(C)C)NC(=O)[C@@H](Cc2c[nH]c3ccccc23)NC(=O)[C@H](C(C)C)NC(=O)[C@@H](CC(C)C)NC(=O)[C@H](Cc2c3ccccc3cc3ccccc23)NC1=O	106 µM (≈ 100 µg/mL)
C=CC[C@H]1NC(=O)[C@H](Cc2c[nH]c3ccccc23)NC(=O)[C@@H](C(C)C)NC(=O)[C@@H]2CSC(N2)[C@H](C(C)C)NC(=O)[C@@H](Cc2c[nH]c3ccccc23)NC(=O)[C@H](C(C)C)NC1=O	58.6 µM (≈ 50 µg/mL)
CCC[C@H]1NC(=O)[C@H](Cc2c[nH]c3ccccc23)NC(=O)[C@@H](C(C)C)NC(=O)[C@@H]2CSC(N2)[C@H](C(C)C)NC(=O)[C@@H](Cc2c[nH]c3ccccc23)NC(=O)[C@H](C(C)C)NC1=O	14.6 µM (≈ 12.5 µg/mL)
CC(C)C[C@H]1NC(=O)[C@H](Cc2ccc(O)c(O)c2)NC(=O)[C@@H](C(C)C)NC(=O)[C@@H]2CSC(N2)[C@H](C(C)C)NC(=O)[C@@H](C(C)C)NC(=O)[C@H](C(C)C)NC1=O	130 µM (≈ 101 µg/mL)
CSCC[C@H]1NC(=O)[C@@H]2CSC(N2)[C@H](C(C)C)NC(=O)[C@@H](Cc2c[nH]c3ccccc23)NC(=O)[C@H](C(C)C)NC(=O)[C@@H](CC(C)C)NC(=O)[C@H](Cc2c[nH]c3ccccc23)NC1=O	111 µM (≈ 100 µg/mL)
CC(C)C[C@@H]1NC(=O)[C@@H](C(C)C)NC(=O)[C@H](C(C)C)NC(=O)[C@@H](C(C)C)NC(=O)[C@@H]2CSC(N2)[C@H](C(C)C)NC(=O)[C@@H](Cc2c[nH]c3ccccc23)NC1=O	8 µM (≈ 6.26 µg/mL)
CC(C)C[C@H]1NC(=O)[C@H](Cc2c[nH]c3ccccc23)NC(=O)[C@@H](Cc2ccccc2)NC(=O)[C@@H]2CSC(N2)[C@H](C(C)C)NC(=O)[C@@H](C(C)C)NC(=O)[C@H](C(C)C)NC1=O	120 µM (≈ 100 µg/mL)
CC(C)C[C@H]1NC(=O)[C@H](Cc2cscn2)NC(=O)[C@@H](C(C)C)NC(=O)[C@@H]2CSC(N2)[C@H](C(C)C)NC(=O)[C@@H](C(C)C)NC(=O)[C@H](C(C)C)NC1=O	133 µM (≈ 100 µg/mL)
CC[C@@H](C)[C@H]1NC(=O)[C@@H]2CSC(N2)[C@H](C(C)C)NC(=O)[C@@H](C(C)C)NC(=O)[C@H](C(C)C)NC(=O)[C@@H](CC(C)C)NC(=O)[C@H](Cc2c[nH]c3ccccc23)NC1=O	31.4 µM (≈ 25 µg/mL)
CC(C)C[C@H]1NC(=O)[C@H](Cc2ccc(O)cc2)NC(=O)[C@@H](C(C)C)NC(=O)[C@@H]2CSC(N2)[C@H](C(C)C)NC(=O)[C@@H](C(C)C)NC(=O)[C@H](C(C)C)NC1=O	132 µM (≈ 100 µg/mL)
CC(C)C[C@H]1NC(=O)[C@H](Cc2csc3ccccc23)NC(=O)[C@@H](C(C)C)NC(=O)[C@@H]2CSC(N2)[C@H](C(C)C)NC(=O)[C@@H](C(C)C)NC(=O)[C@H](C(C)C)NC1=O	15.6 µM (≈ 12.5 µg/mL)
CC(C)C[C@H]1NC(=O)[C@H](Cc2cccc3ccccc23)NC(=O)[C@@H](C(C)C)NC(=O)[C@@H]2CSC(N2)[C@H](C(C)C)NC(=O)[C@@H](C(C)C)NC(=O)[C@H](C(C)C)NC1=O	7.9 µM (≈ 6.27 µg/mL)

Structure (SMILES)	MIC
CC(C)[C@@H]1NC(=O)[C@@H](Cc2c[nH]c3ccccc23)NC(=O)[C@H](C(C)C)NC(=O)C2(CC2)NC(=O)[C@H](Cc2c[nH]c3ccccc23)NC(=O)[C@@H](C(C)C)NC(=O)[C@@H]2CSC1N2	119 µM (≈ 100 µg/mL)
CC(C)C[C@H]1NC(=O)[C@H](Cc2ccc(C(=O)c3ccccc3)cc2)NC(=O)[C@@H](C(C)C)NC(=O)[C@@H]2CSC(N2)[C@H](C(C)C)NC(=O)[C@@H](C(C)C)NC(=O)[C@H](C(C)C)NC1=O	59 µM (≈ 50 µg/mL)
CC(C)C[C@H]1NC(=O)[C@H](Cc2cn(C)c3ccccc23)NC(=O)[C@@H](C(C)C)NC(=O)[C@@H]2CSC(N2)[C@H](C(C)C)NC(=O)[C@@H](C(C)C)NC(=O)[C@H](C(C)C)NC1=O	15.7 µM (≈ 12.5 µg/mL)
CCC[C@H]1NC(=O)[C@@H]2CSC(N2)[C@H](C(C)C)NC(=O)[C@@H](Cc2c[nH]c3ccccc23)NC(=O)[C@H](C(C)C)NC(=O)[C@@H](CC(C)C)NC(=O)[C@H](Cc2c[nH]c3ccccc23)NC1=O	7.2 µM (≈ 6.26 µg/mL)
CCC[C@H]1NC(=O)[C@@H]2CSC(N2)[C@H](C(C)C)NC(=O)[C@@H](C(C)C)NC(=O)[C@H](C(C)C)NC(=O)[C@@H](CC(C)C)NC(=O)[C@H](Cc2c[nH]c3ccccc23)NC1=O	16 µM (≈ 12.5 µg/mL)
CC(C)C[C@H]1NC(=O)[C@H](Cc2cccs2)NC(=O)[C@@H](C(C)C)NC(=O)[C@@H]2CSC(N2)[C@H](C(C)C)NC(=O)[C@@H](C(C)C)NC(=O)[C@H](C(C)C)NC1=O	134 µM (≈ 100 µg/mL)
CC(C)C[C@H]1NC(=O)[C@H](Cc2c[nH]c3ccccc23)NC(=O)[C@@H](C(C)C)NC(=O)[C@@H]2CSC(N2)[C@H](C(C)C)NC(=O)[C@@H](Cc2c[nH]c3ccccc23)NC(=O)[C@H](C(C)C)NC1=O	1.8 µM (≈ 1.57 µg/mL)
C=CC[C@H]1NC(=O)[C@@H]2CSC(N2)[C@H](C(C)C)NC(=O)[C@@H](Cc2c[nH]c3ccccc23)NC(=O)[C@H](C(C)C)NC(=O)[C@@H](CC(C)C)NC(=O)[C@H](Cc2c[nH]c3ccccc23)NC1=O	14.4 µM (≈ 12.5 µg/mL)
CC(C)C[C@H]1NC(=O)[C@H](Cc2c(F)c(F)c(F)c(F)c2F)NC(=O)[C@@H](C(C)C)NC(=O)[C@@H]2CSC(N2)[C@H](C(C)C)NC(=O)[C@@H](C(C)C)NC(=O)[C@H](C(C)C)NC1=O	30 µM (≈ 25 µg/mL)
CC(C)C[C@H]1NC(=O)[C@@H]2Cc3ccccc3CN2C(=O)[C@@H](C(C)C)NC(=O)[C@@H]2CSC(N2)[C@H](C(C)C)NC(=O)[C@@H](C(C)C)NC(=O)[C@H](C(C)C)NC1=O	132 µM (≈ 100 µg/mL)
CC(C)C[C@H]1NC(=O)[C@H](Cc2nc3ccccc3s2)NC(=O)[C@@H](C(C)C)NC(=O)[C@@H]2CSC(N2)[C@H](C(C)C)NC(=O)[C@@H](C(C)C)NC(=O)[C@H](C(C)C)NC1=O	31.3 µM (≈ 25.1 µg/mL)
CC(C)[C@@H]1NC(=O)[C@@H](Cc2c[nH]c3ccccc23)NC(=O)[C@H](C(C)C)NC(=O)[C@@H](Cc2c[nH]c3ccccc23)NC(=O)[C@H](Cc2c[nH]c3ccccc23)NC(=O)[C@@H](C(C)C)NC(=O)[C@@H]2CSC1N2	106 µM (≈ 100 µg/mL)
CC[C@@H](C)[C@H]1NC(=O)[C@H](Cc2c[nH]c3ccccc23)NC(=O)[C@@H](C(C)C)NC(=O)[C@@H]2CSC(N2)[C@H](C(C)C)NC(=O)[C@@H](C(C)C)NC(=O)[C@H](C(C)C)NC1=O	14.4 µM (≈ 11.3 µg/mL)
CC(C)C[C@H]1NC(=O)[C@H](C(c2ccccc2)c2ccccc2)NC(=O)[C@@H](C(C)C)NC(=O)[C@@H]2CSC(N2)[C@H](C(C)C)NC(=O)[C@@H](C(C)C)NC(=O)[C@H](C(C)C)NC1=O	61.1 µM (≈ 50.1 µg/mL)
CC(C)C[C@H]1NC(=O)[C@H](Cc2c[nH]c3ccccc23)NC(=O)[C@@H](C(C)(C)C)NC(=O)[C@@H]2CSC(N2)[C@H](C(C)C)NC(=O)[C@@H](C(C)C)NC(=O)[C@H](C(C)C)NC1=O	31.4 µM (≈ 25 µg/mL)
C#CC[C@@H]1NC(=O)[C@@H](C(C)C)NC(=O)[C@@H]2CSC(N2)[C@H](C(C)C)NC(=O)[C@@H](C(C)C)NC(=O)[C@H](C(C)C)NC(=O)[C@@H](CC(C)C)NC1=O	72.4 µM (≈ 50.1 µg/mL)
CC(C)C[C@H]1NC(=O)[C@@H]2CSC(N2)[C@H](C(C)C)NC(=O)[C@@H](Cc2c[nH]c3ccccc23)NC(=O)[C@H](C(C)C)NC(=O)[C@@H](CC(C)C)NC(=O)[C@H](Cc2c[nH]c3ccccc23)NC1=O	113 µM (≈ 99.9 µg/mL)
CC(C)C[C@H]1NC(=O)[C@H](Cc2ccc(-c3ccccc3)cc2)NC(=O)[C@@H](C(C)C)NC(=O)[C@@H]2CSC(N2)[C@H](C(C)C)NC(=O)[C@@H](C(C)C)NC(=O)[C@H](C(C)C)NC1=O	30.5 µM (≈ 25 µg/mL)
CC(C)C[C@H]1NC(=O)[C@H](c2ccccc2)NC(=O)[C@@H](C(C)C)NC(=O)[C@@H]2CSC(N2)[C@H](C(C)C)NC(=O)[C@@H](C(C)C)NC(=O)[C@H](C(C)C)NC1=O	137 µM (≈ 100 µg/mL)
CC(C)C[C@H]1NC(=O)[C@H](Cc2cccc([N+](=O)[O-])c2)NC(=O)[C@@H](C(C)C)NC(=O)[C@@H]2CSC(N2)[C@H](C(C)C)NC(=O)[C@@H](C(C)C)NC(=O)[C@H](C(C)C)NC1=O	127 µM (≈ 100 µg/mL)
CC(C)CC[C@H]1NC(=O)[C@@H]2CSC(N2)[C@H](C(C)C)NC(=O)[C@@H](C(C)C)NC(=O)[C@H](C(C)C)NC(=O)[C@@H](CC(C)C)NC(=O)[C@H](Cc2c[nH]c3ccccc23)NC1=O	61.7 µM (≈ 50 µg/mL)
CC(C)[C@@H]1NC(=O)[C@@H](Cc2c[nH]c3ccccc23)NC(=O)[C@H](C(C)C)NC(=O)[C@@H](Cc2ccccc2)NC(=O)[C@H](Cc2c[nH]c3ccccc23)NC(=O)[C@@H](C(C)C)NC(=O)[C@@H]2CSC1N2	111 µM (≈ 100 µg/mL)
